Measured values as given in patent US9169241B2, “Quinolinyloxyphenylsulfonamides” (Max-Planck-Gesellschaft Zur Forderung der Wissenschaften …, priority 2009, dated 2015).
Read-outs that look alike come from different tables or passages of the source.

Assays:
Hs578T [1] = assay: Matrigel outgrowth assay/branching assay; type: cell-based; conditions: Homo sapiens, Hs-578T; HS578T cell line; Table Ib; read-out: Total branching inhibition in Matrigel HS578T
Method in brief: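 Matrigel 3 mg/ml, polymerized 1 h 37° C; 5000 cells/well + cmpd 3.125/1.56/0.78 μM or DMSO. Imaged 48/72/96 h, 5× objective. Positive = total branching block.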

indicated cell line = assay: Wound healing migration assay (Table IV); type: cell-based; conditions: compounds at 12.5, 6.25, 3.125 μM, 48 h-72 h
Method in brief: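 Compound exposure at 12.5, 6.25 and 3.125 μM, with DMSO control, on scratch-wounded monolayers (150000 cells/24 well, overnight). Wound closure imaged by microscopy, fixed with crystal violet after 48 h or 72 h depending on cell line; IC50 is the concentration giving 50% wound size between t0 and t48/t72.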

MDA-MB231 = assay: Cell vitality assay (ATP assay, CellTiter-Glo); type: cell-based; conditions: Homo sapiens, MDA-MB-231; MDA-MB231, 72 h; Table IIa; read-out: IC50 ATP-Assay after 72 h MDA-MB231
Method in brief: (§1)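 Viability is estimated from cellular ATP after 72 h of compound treatment at 1000 cells per well. The dilution series runs 12.5, 6.25, 3.125, 1.56, 0.78, 0.39 and 0.195 μM. Half-maximal values are expressed against DMSO-treated wells.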

A172 = assay: Cell vitality assay (ATP assay, CellTiter-Glo); type: cell-based; conditions: Homo sapiens, A 172; A172, 72 h; Table IIa; read-out: IC50 ATP-Assay after 72 h A172
Method in brief: as §1

SF763 = assay: Cell vitality assay (ATP assay, CellTiter-Glo); type: cell-based; conditions: SF763, 72 h; Table IIa; read-out: IC50 ATP-Assay after 72 h SF763
Method in brief: as §1

U138 = assay: Cell vitality assay (ATP assay, CellTiter-Glo); type: cell-based; conditions: U138, 72 h; Table IIa; read-out: IC50 ATP-Assay after 72 h U138
Method in brief: as §1

U118 = assay: Cell vitality assay (ATP assay, CellTiter-Glo); type: cell-based; conditions: U118, 72 h; Table IIa; read-out: IC50 ATP-Assay after 72 h U118
Method in brief: as §1

SF126 = assay: Cell vitality assay (ATP assay, CellTiter-Glo); type: cell-based; conditions: Homo sapiens, SF-126; SF126, 72 h; Table IIa; read-out: IC50 ATP-Assay after 72 h SF126
Method in brief: as §1

C8161 = assay: Cell vitality assay (ATP assay, CellTiter-Glo); type: cell-based; conditions: Homo sapiens; C8161, 72 h; Table IIa; read-out: IC50 ATP-Assay after 72 h C8161
Method in brief: as §1

Hs578T [2] = assay: Cell vitality assay (ATP assay, CellTiter-Glo); type: cell-based; conditions: Homo sapiens, Hs-578T, 72 h
Method in brief: as §1

[3] = Homo sapiens, A 172, A172 cells, read-out: IC50 Wound healing Assay A172
[4] = Homo sapiens, SF-126, SF126 cells, read-out: IC50 Wound healing Assay SF126
[5] = Homo sapiens, C8161 cells, read-out: IC50 Wound healing Assay C8161
[6] = SF763 cells, read-out: IC50 Wound healing Assay SF763
[7] = U118 cells, read-out: IC50 Wound healing Assay U118
[8] = HS578T cell line, Table Ib, read-out: IC50 ATP-Assay HS578T after 72 h
[9] = Hs578T, Table IIa, read-out: IC50 ATP-Assay after 72 h Hs578T

IC50 (indicated cell line; [3]) [µM] | IC50 (indicated cell line; [4]) [µM] | IC50 (indicated cell line; [5]) [µM] | IC50 (indicated cell line; [6]) [µM] | IC50 (indicated cell line; [7]) [µM] | IC50 (MDA-MB231) [µM] | melting point [°C] | Structure (SMILES) | IC50 (Hs578T [1]) [µM] | IC50 (A172) [µM] | IC50 (SF763) [µM] | IC50 (U138) [µM] | IC50 (U118) [µM] | IC50 (SF126) [µM] | IC50 (C8161) [µM] | IC50 (Hs578T [2]; [8]) [µM] | IC50 (Hs578T [2]; [9]) [µM]
≤ 12.5 | ≤ 12.5 | ≤ 12.5 | ≤ 12.5 | ≤ 12.5 | ≤ 12.5 | 113 to 116 | COc1cc2c(Oc3ccc(NS(=O)(=O)c4ccccc4[N+](=O)[O-])cc3F)ccnc2cc1OCCCN1CCCCC1 [Example 7, N-{3-Fluoro-4-[6-methoxy-7-(3-piperidin-1-yl-propoxy)-quinolin-4-yloxy]-phenyl}-2-nitro-benzenesulfonamide] | 10 to 25 | 12.5 to 50 | ≤ 12.5 | ≤ 12.5 | 12.5 to 50 | 12.5 to 50 | ≤ 12.5 | ≤ 12.5 | ≤ 12.5
≤ 12.5 | ≤ 12.5 | ≤ 12.5 | 12.5 to 50 | ≤ 12.5 | ≤ 12.5 | 115 to 118 | COc1cc2c(Oc3ccc(NS(=O)(=O)c4ccccc4Cl)cc3F)ccnc2cc1OCCCN1CCCC(C)C1 (stereo not shown) [Example 38, 2-Chloro-N-(3-fluoro-4-{6-methoxy-7-[3-(3-methyl-piperidin-1-yl)-propoxy]-quinolin-4-yloxy}-phenyl)-benzenesulfonamide] | ≤ 10 | ≤ 12.5 | ≤ 12.5 | ≤ 12.5 | ≤ 12.5 | ≤ 12.5 | ≤ 12.5 | 12.5 to 50 | 12.5 to 50
≤ 12.5 | ≤ 12.5 | 12.5 to 50 | ≤ 12.5 | ≤ 12.5 | 12.5 to 50 | 103 to 105 | COc1cc2c(Oc3ccc(NS(=O)(=O)c4ccccc4C(F)(F)F)cc3Cl)ccnc2cc1OCCCN1CCN(C)CC1 [Example 87, N-(3-Chloro-4-{6-methoxy-7-[3-(4-methyl-piperazin-1-yl)-propoxy]-quinolin-4-yloxy}-phenyl)-2-trifluoromethyl-benzenesulfonamide] | ≤ 10 | ≤ 12.5 | ≤ 12.5 | ≤ 12.5 | ≤ 12.5 | ≤ 12.5 | ≤ 12.5 | 12.5 to 50 | 12.5 to 50

Structure (SMILES) | IC50 (indicated cell line; [3]) [µM] | IC50 (indicated cell line; [4]) [µM] | IC50 (indicated cell line; [5]) [µM] | IC50 (indicated cell line; [6]) [µM] | IC50 (indicated cell line; [7]) [µM] | IC50 (MDA-MB231) [µM] | melting point [°C] | IC50 (Hs578T [1]) [µM] | IC50 (A172) [µM] | IC50 (SF763) [µM] | IC50 (U138) [µM] | IC50 (U118) [µM] | IC50 (SF126) [µM] | IC50 (C8161) [µM] | IC50 (Hs578T [2]; [8]) [µM] | IC50 (Hs578T [2]; [9]) [µM]
COc1cc2c(Oc3ccc(NS(=O)(=O)c4ccccc4C(F)(F)F)cc3F)ccnc2cc1OCCCN1CCCCC1C (stereo not shown) [Example 99, N-(3-Fluoro-4-{6-methoxy-7-[3-(2-methyl-piperidin-1-yl)-propoxy]-quinolin-4-yloxy}-phenyl)-2-trifluoromethyl-benzenesulfonamide] | ≤ 12.5 | ≤ 12.5 | 12.5 to 50 | ≤ 12.5 | ≤ 12.5 | ≤ 12.5 | 115 to 116 | ≤ 10 | ≤ 12.5 | ≤ 12.5 | ≤ 12.5 | ≤ 12.5 | ≤ 12.5 | 12.5 to 50 | ≤ 12.5 | ≤ 12.5
